Source: patent US20240343704A1, “HALO-SUBSTITUTED AMINO PYRIDINE COMPOUNDS AS INHIBITORS OF THE HAEMATOPOIETIC PROGENITOR KINASE 1 (HPK1)” (priority 2021, published 2024)

Each compound was assayed against T1, Recombinant (1-346) HPK1 (h) (Homo sapiens, UniProt Q92918) (assay: HPK1 Human STE Kinase Enzymatic Radiometric Assay). Details: read-out: HPK1 IC50 nM Range*.
T1 construct: Recombinant (1-346) HPK1 (h) is incubated with 8 mM MOPS pH 7.0
T1 sequence (Q92918 1-346): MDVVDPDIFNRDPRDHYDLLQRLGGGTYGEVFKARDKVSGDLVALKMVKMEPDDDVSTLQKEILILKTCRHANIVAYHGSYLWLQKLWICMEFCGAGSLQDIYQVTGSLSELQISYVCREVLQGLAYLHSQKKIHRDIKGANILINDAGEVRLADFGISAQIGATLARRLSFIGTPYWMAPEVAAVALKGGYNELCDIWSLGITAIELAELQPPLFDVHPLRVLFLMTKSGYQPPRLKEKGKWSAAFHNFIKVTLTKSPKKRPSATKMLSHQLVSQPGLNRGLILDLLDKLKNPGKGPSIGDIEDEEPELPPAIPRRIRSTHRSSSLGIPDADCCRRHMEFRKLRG
Type: biochemical
Experimental: A stock solution of 10 mM of test compound is prepared in DMSO. The compound plate was prepared by 3-fold and 9-point serial dilutions. […] The reaction is initiated by The addition of the Mg/ATP mix. After incubation for 40 minutes at RT, the reaction is stopped by the addition of phosphoric acid to a concentration of 0.5%.

Row | SMILES | IC50
1 | Nc1nc(F)c(-c2ccc(N3CCCCC3)cc2)cc1-c1ccc2c(c1)CCNC2=O [I-60, 6-(2-amino-6-fluoro-5-(4-(piperidin-1-yl)phenyl)pyridin-3-yl)-3,4-dihydroisoquinolin-1(2H)-one] | 0.1 to 10 nM
2 | Nc1nc(F)c(-c2ccc(OC3CCNCC3)c(C(F)(F)F)c2)cc1-c1ccc2c(c1)CCNC2=O [I-190, 6-(2-amino-6-fluoro-5-(4-(piperidin-4-yloxy)-3-(trifluoromethyl)phenyl)pyridin-3-yl)-3,4-dihydroisoquinolin-1(2H)-one] | 11 to 100 nM
3 | Nc1nc(F)c(-c2ccc(CN3CCOCC3)cc2)cc1-c1cc(F)c2c(c1)CCNC2=O [I-360, 6-(2-amino-6-fluoro-5-(4-(morpholinomethyl)phenyl)pyridin-3-yl)-8-fluoro-3,4-dihydroisoquinolin-1(2H)-one] | 0.1 to 10 nM
4 | Nc1nc(F)c(-c2ccc(N3CCOCC3)c(F)c2)cc1-c1cc(F)c2c(c1)CCNC2=O [I-361, 6-(2-amino-6-fluoro-5-(3-fluoro-4-morpholinophenyl)pyridin-3-yl)-8-fluoro-3,4-dihydroisoquinolin-1(2H)-one] | 0.1 to 10 nM
5 | CC(C)N1CCN(c2ccc(-c3cc(-c4ccc5c(=O)[nH]c(C6CCC6)nc5c4)c(N)nc3F)cc2)CC1 [I-413, 7-(2-amino-6-fluoro-5-(4-(4-isopropylpiperazin-1-yl)phenyl)pyridin-3-yl)-2-cyclobutylquinazolin-4(3H)-one] | 101 to 1000 nM
6 | CC(C)N1CCN(c2ccc(-c3cc(-c4ccc5c(=O)[nH]c(Cl)nc5c4)c(N)nc3F)cc2)CC1 [I-418, 7-(2-amino-6-fluoro-5-(4-(4-isopropylpiperazin-1-yl)phenyl)pyridin-3-yl)-2-chloroquinazolin-4(3H)-one] | 101 to 1000 nM
7 | CC(C)N1CCN(c2ccc(-c3cc(-c4ccc5c(c4)S(=O)(=O)CNC5=O)c(N)nc3F)cc2)CC1 [I-424, 7-(2-amino-6-fluoro-5-(4-(4-isopropylpiperazin-1-yl)phenyl)pyridin-3-yl)-2,3-dihydro-4H-benzo[e][1,3]thiazin-4-one 1,1-dioxide] | 11 to 100 nM
8 | CCN(C)Cc1cc(-c2cc(-c3ccc4c(c3)CCNC4=O)c(N)nc2F)ccc1C1CCOCC1 [I-428, 6-(2-amino-5-(3-((ethyl(methyl)amino)methyl)-4-(tetrahydro-2H-pyran-4-yl)phenyl)-6-fluoropyridin-3-yl)-3,4-dihydroisoquinolin-1(2H)-one] | 11 to 100 nM
9 | CN1CC2(CCN(c3ccc(-c4cc(-c5ccc6c(c5)CCNC6=O)c(N)nc4F)cc3)CC2)C1 [I-430, 6-(2-amino-6-fluoro-5-(4-(2-methyl-2,7-diazaspiro[3.5]nonan-7-yl)phenyl)pyridin-3-yl)-3,4-dihydroisoquinolin-1(2H)-one] | 0.1 to 10 nM
10 | CN(C)Cc1cc(-c2cc(-c3cc4c(cc3F)C(=O)NCC4)c(N)nc2F)ccc1N1CCOCC1 [I-433, 6-(2-amino-5-(3-((dimethylamino)methyl)-4-morpholinophenyl)-6-fluoropyridin-3-yl)-7-fluoro-3,4-dihydroisoquinolin-1(2H)-one] | 0.1 to 10 nM
11 | COc1cc2c(cc1-c1cc(-c3ccc4c(c3)CCNC4=O)c(N)nc1F)CN(C)CC2 [I-438, 6-(2-amino-6-fluoro-5-(6-methoxy-2-methyl-1,2,3,4-tetrahydroisoquinolin-7-yl)pyridin-3-yl)-3,4-dihydroisoquinolin-1(2H)-one] | 11 to 100 nM
12 | CN(C)Cc1cc(-c2cc(-c3ccc4c(c3)CCNC4=O)c(N)nc2F)ccc1N1CCN(C(=O)OC(C)(C)C)CC1 [I-442, tert-butyl 4-(4-(6-amino-2-fluoro-5-(1-oxo-1,2,3,4-tetrahydroisoquinolin-6-yl)pyridin-3-yl)-2-((dimethylamino)methyl)phenyl)piperazine-1-carboxylate] | 0.1 to 10 nM
13 | CN1CCC[C@H]1c1cccc(-c2cc(-c3ccc4c(c3)CCNC4=O)c(N)nc2F)c1 [I-443, (S)-6-(2-amino-6-fluoro-5-(3-(1-methylpyrrolidin-2-yl)phenyl)pyridin-3-yl)-3,4-dihydroisoquinolin-1(2H)-one] | 101 to 1000 nM
14 | CN1CCC[C@H]1c1cccc(-c2cc(-c3cc4c(cc3F)C(=O)NCC4)c(N)nc2F)c1 [I-444, (S)-6-(2-amino-6-fluoro-5-(3-(1-methylpyrrolidin-2-yl)phenyl)pyridin-3-yl)-7-fluoro-3,4-dihydroisoquinolin-1(2H)-one] | 11 to 100 nM
15 | COCCN1CCc2c(C)cc(-c3cc(-c4ccc5c(c4)CCNC5=O)c(N)nc3F)cc2C1 [I-448, 6-(2-amino-6-fluoro-5-(2-(2-methoxyethyl)-5-methyl-1,2,3,4-tetrahydroisoquinolin-7-yl)pyridin-3-yl)-3,4-dihydroisoquinolin-1(2H)-one] | 0.1 to 10 nM
16 | COC1(C)NC(=O)c2ccc(-c3cc(-c4ccc(N5CCN(C(C)C)CC5)cc4)c(F)nc3N)cc2C1(F)F (centres unmarked) [I-450, 6-(2-amino-6-fluoro-5-(4-(4-isopropylpiperazin-1-yl)phenyl)pyridin-3-yl)-4,4-difluoro-3-methoxy-3-methyl-3,4-dihydroisoquinolin-1(2H)-one] | 11 to 100 nM
17 | CN(C)Cc1cc(-c2cc(-c3cc4c(cc3F)C(=O)NCC4)c(N)nc2F)ccc1N1CCN(C2CCCC2)CC1 [I-452, 6-(2-amino-5-(4-(4-cyclopentylpiperazin-1-yl)-3-((dimethylamino)methyl)phenyl)-6-fluoropyridin-3-yl)-7-fluoro-3,4-dihydroisoquinolin-1(2H)-one] | 0.1 to 10 nM
18 | COc1ccc(-c2cc(-c3ccc4c(c3)CCNC4=O)c(N)nc2F)cc1CN(C)C [I-459, 6-(2-amino-5-(3-((dimethylamino)methyl)-4-methoxyphenyl)-6-fluoropyridin-3-yl)-3,4-dihydroisoquinolin-1(2H)-one] | 11 to 100 nM
19 | CN(C)Cc1cc(-c2cc(-c3ccc4c(c3)CCNC4=O)c(N)nc2F)ccc1N1CCN(C2CCC2)CC1 [I-461, 6-(2-amino-5-(4-(4-cyclobutylpiperazin-1-yl)-3-((dimethylamino)methyl)phenyl)-6-fluoropyridin-3-yl)-3,4-dihydroisoquinolin-1(2H)-one] | 0.1 to 10 nM

Further lines, results first:

Row | IC50 | SMILES
20 | 0.1 to 10 nM | CC(=O)N1CCC(Oc2ccc(-c3cc(-c4cc5c(cc4F)C(=O)NCC5)c(N)nc3F)cc2C#N)CC1 [I-291, 2-((1-acetylpiperidin-4-yl)oxy)-5-(6-amino-2-fluoro-5-(7-fluoro-1-oxo-1,2,3,4-tetrahydroisoquinolin-6-yl)pyridin-3-yl)benzonitrile]
21 | 101 to 1000 nM | CC(C)N1CCN(c2ccc(-c3cc(-c4ccc5c(=O)[nH]c(C6CC6)nc5c4)c(N)nc3F)cc2)CC1 [I-412, 7-(2-amino-6-fluoro-5-(4-(4-isopropylpiperazin-1-yl)phenyl)pyridin-3-yl)-2-cyclopropylquinazolin-4(3H)-one]
22 | 11 to 100 nM | COc1nc2cc(-c3cc(-c4ccc(N5CCN(C(C)C)CC5)cc4)c(F)nc3N)ccc2c(=O)[nH]1 [I-419, 7-(2-amino-6-fluoro-5-(4-(4-isopropylpiperazin-1-yl)phenyl)pyridin-3-yl)-2-methoxyquinazolin-4(3H)-one]
23 | 101 to 1000 nM | CC(C)N1CCN(c2ccc(-c3cc(-c4ccc5c(=O)[nH]c(N(C)C)nc5c4)c(N)nc3F)cc2)CC1 [I-420, 7-(2-amino-6-fluoro-5-(4-(4-isopropylpiperazin-1-yl)phenyl)pyridin-3-yl)-2-(dimethylamino)quinazolin-4(3H)-one]
24 | 11 to 100 nM | CNc1nc2cc(-c3cc(-c4ccc(N5CCN(C(C)C)CC5)cc4)c(F)nc3N)ccc2c(=O)[nH]1 [I-421, 7-(2-amino-6-fluoro-5-(4-(4-isopropylpiperazin-1-yl)phenyl)pyridin-3-yl)-2-(methylamino)quinazolin-4(3H)-one]
25 | 0.1 to 10 nM | CC(C)N1CCN(c2ccc(-c3cc(-c4ccc5c(=O)[nH]c(N)nc5c4)c(N)nc3F)cc2)CC1 [I-422, 2-amino-7-(2-amino-6-fluoro-5-(4-(4-isopropylpiperazin-1-yl)phenyl)pyridin-3-yl)quinazolin-4(3H)-one]
26 | 0.1 to 10 nM | CN(C)Cc1cc(-c2cc(-c3cc4c(cc3F)C(=O)NCC4)c(N)nc2F)ccc1N1CCN(CCCC(F)F)CC1 [I-447, 6-(2-amino-5-(4-(4-(4,4-difluorobutyl)piperazin-1-yl)-3-((dimethylamino)methyl)phenyl)-6-fluoropyridin-3-yl)-7-fluoro-3,4-dihydroisoquinolin-1(2H)-one]
27 | 0.1 to 10 nM | CN(C)Cc1cc(-c2cc(-c3ccc4c(=O)[nH]ccc4c3)c(N)nc2F)ccc1N1CCN(CCCC(F)F)CC1 [I-453, 6-(2-amino-5-(4-(4-(4,4-difluorobutyl)piperazin-1-yl)-3-((dimethylamino)methyl)phenyl)-6-fluoropyridin-3-yl)isoquinolin-1(2H)-one]
28 | 0.1 to 10 nM | Cc1[nH]c(=O)c2ccc(-c3cc(-c4ccc(N5CCN(CC6CC6)CC5)cc4)c(F)nc3N)cc2c1F [I-456, 6-(2-amino-5-(4-(4-(cyclopropylmethyl)piperazin-1-yl)phenyl)-6-fluoropyridin-3-yl)-4-fluoro-3-methylisoquinolin-1(2H)-one]
29 | 0.1 to 10 nM | CC(C)N1CCN(c2ccc(-c3cc(-c4ncc5c(n4)CCNC5=O)c(N)nc3F)cc2)CC1 [I-458, 2-(2-amino-6-fluoro-5-(4-(4-isopropylpiperazin-1-yl)phenyl)pyridin-3-yl)-7,8-dihydropyrido[4,3-d]pyrimidin-5(6H)-one]
